Results on two compounds are retold here after ChEMBL document CHEMBL4334438, “Discovery of novel glycogen synthase kinase-3α inhibitors: Structure-based virtual screening, preliminary SAR and biological evaluation for treatment of acute myeloid leukemia” (Eur J Med Chem, 2019).

What is called IC50 is the concentration needed to halve the response being measured. A high value points to weaker potency.

The target in assay [1] is Ephrin type-A receptor 7 (Homo sapiens) (UniProt Q15375). Kind of assay: Inhibition of recombinant human EphA7 (613 to 909 residues) assessed as residual activity at 1 uM using KTFCGTPEYLAPEVRREPRILSEEEQEMFRDFDYIADWC as substrate at 40 mins in presence of [gamma-33ATP] by scintillation counting based radiometry assay relative to control.
Assay [2] has as its target Non-receptor tyrosine-protein kinase TYK2 (Homo sapiens) (UniProt P29597). As to the kind of experiment: Inhibition of human TYK2 (875 to end residues) assessed as residual activity at 1 uM using GGMEDIYFEFMGGKKK as substrate measured after 40 mins in presence of [gamma33P]ATP by scintillation counting method relative to control.
The target of assay [3] is Mitogen-activated protein kinase 13 (Homo sapiens) (UniProt O15264). As to the kind of experiment: Inhibition of recombinant human full length SAPK4 assessed as residual activity at 1 uM using myelin basic protein as substrate measured after 40 mins in presence of [gamma33P]ATP by scintillation counting method relative to control.
Chain of Mitogen-activated protein kinase 13 (Homo sapiens) (O15264 whole entry): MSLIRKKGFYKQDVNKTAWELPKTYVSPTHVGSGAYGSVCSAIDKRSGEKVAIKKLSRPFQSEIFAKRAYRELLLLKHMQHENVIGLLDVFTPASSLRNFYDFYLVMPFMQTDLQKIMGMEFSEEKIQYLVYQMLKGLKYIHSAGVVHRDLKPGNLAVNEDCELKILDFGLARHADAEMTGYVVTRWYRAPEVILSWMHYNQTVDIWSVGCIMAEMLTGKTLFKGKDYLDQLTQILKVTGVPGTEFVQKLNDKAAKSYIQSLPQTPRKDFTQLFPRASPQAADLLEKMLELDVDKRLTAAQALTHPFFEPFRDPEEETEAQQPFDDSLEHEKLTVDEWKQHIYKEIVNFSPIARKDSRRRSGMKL
The target of assay [4] is Mitogen-activated protein kinase 14 (Homo sapiens) (UniProt Q16539). As to the kind of experiment: Inhibition of recombinant human full length SAPK2a assessed as residual activity at 1 uM using myelin basic protein as substrate measured after 40 mins in presence of [gamma33P]ATP by scintillation counting method relative to control.
Assay [5] deals with Calcium/calmodulin-dependent protein kinase type 1G (Homo sapiens) (UniProt Q96NX5). As to the kind of experiment: Inhibition of recombinant full length human CaMKIgamma assessed as residual activity at 1 uM using KKLRRTLSFAEPG as substrate incubated for 40 mins in presence of [gamma-33ATP] by scintillation counting based radiometry assay relative to control.
Chain of Calcium/calmodulin-dependent protein kinase type 1G (Homo sapiens) (Q96NX5 whole entry): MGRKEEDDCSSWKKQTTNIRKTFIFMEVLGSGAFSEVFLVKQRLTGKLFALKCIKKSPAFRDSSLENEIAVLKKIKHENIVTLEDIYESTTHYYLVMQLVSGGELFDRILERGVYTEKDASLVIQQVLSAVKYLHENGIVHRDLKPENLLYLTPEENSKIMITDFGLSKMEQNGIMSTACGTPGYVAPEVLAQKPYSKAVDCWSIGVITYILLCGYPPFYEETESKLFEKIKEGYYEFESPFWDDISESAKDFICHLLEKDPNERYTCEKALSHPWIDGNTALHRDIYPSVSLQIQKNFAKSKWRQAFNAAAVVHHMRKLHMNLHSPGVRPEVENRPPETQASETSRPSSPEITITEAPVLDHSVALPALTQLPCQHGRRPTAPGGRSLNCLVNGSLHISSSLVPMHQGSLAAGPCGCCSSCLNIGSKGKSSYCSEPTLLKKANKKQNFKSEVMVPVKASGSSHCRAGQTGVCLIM
The target of assay [6] is Cyclin-dependent kinase 13/Cyclin-K (Homo sapiens) (UniProt Q14004+O75909). Kind of assay: Inhibition of recombinant full length human CDK13/cyclinK assessed as residual activity at 1 uM using RSRSRSRSRSRSRSR as substrate incubated for 120 mins in presence of [gamma-33ATP] by scintillation counting based radiometry assay relative to control. The assay is classed as protein-complex assay.

Assay [7] addresses STE20-like serine/threonine-protein kinase (Homo sapiens) (UniProt Q9H2G2). As to the kind of experiment: Inhibition of human SLK (1 to 373 residues) assessed as residual activity at 1 uM using RLGRDKYKTLRQIRQ as substrate measured after 40 mins in presence of [gamma33P]ATP by scintillation counting method relative to control.
The species named for the next assay is Homo sapiens. As to the kind of experiment: Inhibition of recombinant human FLT4 V1128L/ H1146R double mutant (800 to end residues) assessed as residual activity at 1 uM using GGEEEEYFELVKKKK as substrate at 40 mins in presence of [gamma-33ATP] by scintillation counting based radiometry assay relative to control.
The target in assay [8] is Ephrin type-B receptor 3 (Homo sapiens) (UniProt P54753). Kind of assay: Inhibition of recombinant human EphB3 (599 to 920 residues) assessed as residual activity at 1 uM using poly(Glu, Tyr) 4:1 as substrate at 40 mins in presence of [gamma-33ATP] by scintillation counting based radiometry assay relative to control.
Assay [9] has as its target Ephrin type-B receptor 4 (Homo sapiens) (UniProt P54760). As to the kind of experiment: Inhibition of recombinant human EphB4 (561 to end residues) assessed as residual activity at 1 uM using poly(Glu, Tyr) 4:1 as substrate at 40 mins in presence of [gamma-33ATP] by scintillation counting based radiometry assay relative to control.
For assay [10], the system named is Glycogen synthase kinase-3 alpha (Homo sapiens), P49840 [UNDEFINED MUTATION]. Kind of assay: Inhibition of human GSK-3alpha S449A mutant (2 to end residues) assessed as residual activity at 1 uM using phospho GS2 peptide as substrate after 40 mins by [gamma-33ATP] radiometric assay.
Chain of Glycogen synthase kinase-3 alpha (Homo sapiens), P49840 [UNDEFINED MUTATION] (P49840 whole entry, looked up, stated change not applied): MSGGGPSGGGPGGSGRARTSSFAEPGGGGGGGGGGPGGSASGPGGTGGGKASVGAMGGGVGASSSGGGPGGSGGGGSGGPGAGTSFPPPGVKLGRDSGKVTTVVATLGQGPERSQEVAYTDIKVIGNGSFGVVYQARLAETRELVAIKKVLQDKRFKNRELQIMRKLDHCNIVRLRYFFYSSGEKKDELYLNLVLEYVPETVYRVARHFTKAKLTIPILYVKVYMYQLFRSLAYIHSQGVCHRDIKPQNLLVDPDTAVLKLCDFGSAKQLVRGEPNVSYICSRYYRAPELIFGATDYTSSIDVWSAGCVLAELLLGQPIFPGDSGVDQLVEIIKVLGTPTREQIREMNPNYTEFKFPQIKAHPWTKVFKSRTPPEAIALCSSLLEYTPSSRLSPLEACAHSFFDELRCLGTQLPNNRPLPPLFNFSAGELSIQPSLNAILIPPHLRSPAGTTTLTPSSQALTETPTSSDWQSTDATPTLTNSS
Assay [11] deals with Protein kinase C zeta type (Homo sapiens) (UniProt Q05513). Kind of assay: Inhibition of recombinant human PKCzeta (2 to end residues) assessed as residual activity at 1 uM using ERMRPRKRQGSVRRRV as substrate measured after 40 mins in presence of [gamma33P]ATP by scintillation counting method relative to control.
Chain of Protein kinase C zeta type (Homo sapiens) (Q05513 whole entry): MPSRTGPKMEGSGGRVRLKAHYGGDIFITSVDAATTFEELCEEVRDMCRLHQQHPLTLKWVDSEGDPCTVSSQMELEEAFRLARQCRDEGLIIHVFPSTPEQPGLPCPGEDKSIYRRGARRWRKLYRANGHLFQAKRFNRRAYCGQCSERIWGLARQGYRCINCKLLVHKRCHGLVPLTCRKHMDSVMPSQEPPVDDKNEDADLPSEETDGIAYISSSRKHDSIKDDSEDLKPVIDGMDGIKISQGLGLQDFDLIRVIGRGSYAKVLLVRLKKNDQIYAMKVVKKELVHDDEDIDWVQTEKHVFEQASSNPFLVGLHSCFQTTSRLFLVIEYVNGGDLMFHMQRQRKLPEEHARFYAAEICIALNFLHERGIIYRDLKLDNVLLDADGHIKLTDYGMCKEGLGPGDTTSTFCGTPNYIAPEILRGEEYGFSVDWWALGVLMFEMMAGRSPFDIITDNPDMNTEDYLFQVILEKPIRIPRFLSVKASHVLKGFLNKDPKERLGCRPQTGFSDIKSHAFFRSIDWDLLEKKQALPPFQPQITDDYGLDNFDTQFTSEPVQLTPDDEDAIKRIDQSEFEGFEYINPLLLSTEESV
Assay [12] deals with Mitogen-activated protein kinase 11 (Homo sapiens) (UniProt Q15759). Kind of assay: Inhibition of recombinant human full length SAPK2b assessed as residual activity at 1 uM using myelin basic protein as substrate measured after 40 mins in presence of [gamma33P]ATP by scintillation counting method relative to control.
Chain of Mitogen-activated protein kinase 11 (Homo sapiens) (Q15759 whole entry): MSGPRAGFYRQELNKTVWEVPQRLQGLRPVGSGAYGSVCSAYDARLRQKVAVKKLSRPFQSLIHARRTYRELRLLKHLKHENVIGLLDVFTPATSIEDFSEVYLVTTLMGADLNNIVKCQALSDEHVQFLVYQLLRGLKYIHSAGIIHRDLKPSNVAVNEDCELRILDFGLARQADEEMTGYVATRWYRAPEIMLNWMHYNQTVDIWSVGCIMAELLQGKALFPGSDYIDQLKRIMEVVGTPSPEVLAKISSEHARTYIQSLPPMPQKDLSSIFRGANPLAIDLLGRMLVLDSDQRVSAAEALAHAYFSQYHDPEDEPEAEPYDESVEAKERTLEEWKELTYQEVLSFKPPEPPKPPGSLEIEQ
For assay [13], the target named is Protein kinase C epsilon type (Homo sapiens) (UniProt Q02156). As to the kind of experiment: Inhibition of recombinant human PKCepsilon (2 to end residues) assessed as residual activity at 1 uM using ERMRPRKRQGSVRRRV as substrate measured after 40 mins in presence of [gamma33P]ATP by scintillation counting method relative to control.
Assay [14] addresses Serine/threonine-protein kinase pim-3 (Homo sapiens) (UniProt Q86V86). As to the kind of experiment: Inhibition of recombinant human Pim3 (2 to end residues) assessed as residual activity at 1 uM using RSRHSSYPAGT as substrate measured after 40 mins in presence of [gamma33P]ATP by scintillation counting method relative to control.
In assay [15] the target is CDK12/Cyclin K (Homo sapiens) (UniProt O75909+Q9NYV4). Kind of assay: Inhibition of recombinant full length human CDK12/cyclinK assessed as residual activity at 1 uM using RSRSRSRSRSRSRSR as substrate incubated for 120 mins in presence of [gamma-33ATP] by scintillation counting based radiometry assay relative to control. Format: protein-complex assay.
Assay [16] concerns the target Bone morphogenetic protein receptor type-2 (Homo sapiens) (UniProt Q13873). As to the kind of experiment: Inhibition of recombinant human BMPR2 (172 to 734 residues) assessed as residual activity at 1 uM using myelin basic protein as substrate incubated for 120 mins in presence of [gamma-33ATP] by scintillation counting based radiometry assay relative to control.
Assay [17] addresses Tyrosine-protein kinase ITK/TSK (Homo sapiens) (UniProt Q08881). Kind of assay: Inhibition of human Itk (352 to 617 residues) assessed as residual activity at 1 uM using myelin basic protein as substrate after 40 mins by [gamma-33ATP] radiometric assay relative to control.
The target of assay [18] is Glycogen synthase kinase-3 beta (Homo sapiens, UniProt P49841, H350L). As to the kind of experiment: Inhibition of human GSK-3beta H350L mutant (2 to end residues) at 10 uM using phospho GS2 peptide as substrate after 40 mins by [gamma-33ATP] radiometric assay.
Chain of Glycogen synthase kinase-3 beta (P49841 whole entry, looked up, stated change not applied): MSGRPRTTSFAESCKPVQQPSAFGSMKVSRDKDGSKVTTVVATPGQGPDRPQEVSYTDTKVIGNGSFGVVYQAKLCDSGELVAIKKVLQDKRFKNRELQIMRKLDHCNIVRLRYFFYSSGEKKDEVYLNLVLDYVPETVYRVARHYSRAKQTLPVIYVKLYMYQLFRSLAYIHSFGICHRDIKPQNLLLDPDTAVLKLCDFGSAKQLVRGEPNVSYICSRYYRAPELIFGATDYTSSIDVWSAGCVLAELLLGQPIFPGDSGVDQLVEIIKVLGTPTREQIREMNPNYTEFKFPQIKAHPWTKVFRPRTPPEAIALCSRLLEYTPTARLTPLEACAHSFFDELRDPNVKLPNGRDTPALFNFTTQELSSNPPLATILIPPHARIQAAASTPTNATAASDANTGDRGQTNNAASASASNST
Assay [19] concerns the target Protein kinase C beta type (Homo sapiens) (UniProt P05771). Kind of assay: Inhibition of recombinant human PKCbeta1 (2 to end residues) assessed as residual activity at 1 uM using histone H1 as substrate measured after 40 mins in presence of [gamma33P]ATP by scintillation counting method relative to control.
In assay [20] the target is Serine/threonine-protein kinase NIM1 (Homo sapiens) (UniProt Q8IY84). As to the kind of experiment: Inhibition of recombinant full length human NIM1 assessed as residual activity at 1 uM using KKKVSRSGLYRSPSMPENLNRPR as substrate measured after 40 mins in presence of [gamma33P]ATP by scintillation counting method relative to control.

Chain of STE20-like serine/threonine-protein kinase (Homo sapiens) (Q9H2G2 whole entry, looked up, the tested form may be a part): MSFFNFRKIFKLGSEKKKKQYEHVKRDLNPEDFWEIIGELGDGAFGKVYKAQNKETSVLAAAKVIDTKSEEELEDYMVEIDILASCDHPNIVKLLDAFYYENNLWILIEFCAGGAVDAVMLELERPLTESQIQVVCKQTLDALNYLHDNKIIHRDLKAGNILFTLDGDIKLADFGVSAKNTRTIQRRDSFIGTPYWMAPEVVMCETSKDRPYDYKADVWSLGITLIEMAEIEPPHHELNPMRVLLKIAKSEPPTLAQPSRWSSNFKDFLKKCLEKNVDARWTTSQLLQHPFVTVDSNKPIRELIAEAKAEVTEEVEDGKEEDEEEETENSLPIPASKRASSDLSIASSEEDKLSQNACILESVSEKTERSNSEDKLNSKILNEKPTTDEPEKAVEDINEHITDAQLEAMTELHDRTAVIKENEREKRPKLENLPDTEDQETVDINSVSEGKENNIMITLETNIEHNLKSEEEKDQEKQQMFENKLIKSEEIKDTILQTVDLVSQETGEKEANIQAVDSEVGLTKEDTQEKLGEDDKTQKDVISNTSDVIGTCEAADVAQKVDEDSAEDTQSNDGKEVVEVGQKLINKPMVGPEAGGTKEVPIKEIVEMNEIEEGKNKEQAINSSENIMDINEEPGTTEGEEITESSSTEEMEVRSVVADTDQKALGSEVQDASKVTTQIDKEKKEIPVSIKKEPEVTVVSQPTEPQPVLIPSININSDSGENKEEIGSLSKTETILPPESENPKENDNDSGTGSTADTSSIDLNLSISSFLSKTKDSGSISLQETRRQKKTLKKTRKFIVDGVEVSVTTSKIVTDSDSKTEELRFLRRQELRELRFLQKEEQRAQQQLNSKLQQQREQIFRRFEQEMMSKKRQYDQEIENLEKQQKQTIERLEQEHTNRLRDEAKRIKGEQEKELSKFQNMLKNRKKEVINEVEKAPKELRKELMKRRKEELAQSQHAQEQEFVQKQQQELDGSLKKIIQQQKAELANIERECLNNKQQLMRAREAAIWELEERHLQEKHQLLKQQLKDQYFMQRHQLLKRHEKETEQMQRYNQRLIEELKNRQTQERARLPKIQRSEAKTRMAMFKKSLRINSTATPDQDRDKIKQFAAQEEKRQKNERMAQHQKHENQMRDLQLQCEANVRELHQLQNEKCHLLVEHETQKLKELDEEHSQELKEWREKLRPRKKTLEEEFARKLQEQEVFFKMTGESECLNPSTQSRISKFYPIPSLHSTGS
Chain of Protein kinase C beta type (Homo sapiens) (P05771 2-671 limits assumed): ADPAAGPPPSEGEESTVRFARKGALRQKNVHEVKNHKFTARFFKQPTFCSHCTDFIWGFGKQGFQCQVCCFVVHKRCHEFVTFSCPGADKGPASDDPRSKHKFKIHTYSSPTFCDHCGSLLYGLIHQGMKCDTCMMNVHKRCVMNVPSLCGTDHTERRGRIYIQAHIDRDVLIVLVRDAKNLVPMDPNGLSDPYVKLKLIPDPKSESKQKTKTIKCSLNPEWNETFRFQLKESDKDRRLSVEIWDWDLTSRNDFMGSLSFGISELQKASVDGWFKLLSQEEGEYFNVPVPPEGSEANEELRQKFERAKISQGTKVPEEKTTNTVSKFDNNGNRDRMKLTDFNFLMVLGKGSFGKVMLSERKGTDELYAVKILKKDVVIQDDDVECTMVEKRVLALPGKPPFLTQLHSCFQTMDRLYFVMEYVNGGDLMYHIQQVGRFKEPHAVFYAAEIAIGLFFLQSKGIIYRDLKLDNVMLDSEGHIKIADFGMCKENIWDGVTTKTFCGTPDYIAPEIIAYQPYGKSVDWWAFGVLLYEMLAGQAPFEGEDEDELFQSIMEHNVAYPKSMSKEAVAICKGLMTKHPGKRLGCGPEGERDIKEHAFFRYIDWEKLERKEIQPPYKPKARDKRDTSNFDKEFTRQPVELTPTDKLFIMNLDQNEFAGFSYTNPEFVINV

With `C=CCOC(=O)c1cc(-c2ccc(/C=C3/NC(=S)NC3=O)o2)ccc1Cl`, the Activity was 99% in assay [1]; 94% in assay [2]; 89% in [3]; 101% in assay [4]; 92% in [5]; 96% in assay [6]. In addition, the Activity is 87% in assay [7]; 82% in the assay filed under Homo sapiens; 104% in [8]; 94% in assay [9]; 10% in [10]; 96% in assay [11]. Further, the Activity in [12] stood at 100%; in [13] it was 99%; in assay [14], 33%; in assay [15], 96%; in [16] it was 99%; in assay [17], 107%. Besides, the Activity is 113% in [19] and 95% in assay [20]. The compound also had an IC50 in [18] of 218 nM.

For `N=C1NC(=O)/C(=C\c2ccc(-c3cccc([N+](=O)[O-])c3)o2)S1`, the Activity turned out to be 101% in assay [1]; 107% in assay [2]; 97% in assay [3]; 100% in assay [4]; 99% in [5]; 102% in assay [6]. Also, the Activity amounted to 95% in [7]; 116% in the assay filed under Homo sapiens; 106% in assay [8]; 93% in assay [9]; 8% in assay [10]; 108% in assay [11]. Moreover, the Activity was determined as 100% in [12]; 106% in assay [13]; 21% in assay [14]; 98% in assay [15]; 91% in assay [16]; 98% in assay [17]. Further, the Activity in [19] was determined as 100%; in assay [20] it was 101%. Further, the IC50 in [18] came out at 110 nM.
